Results published in ChEMBL document CHEMBL4414645, “Development of Robust 17(R),18(S)-Epoxyeicosatetraenoic Acid (17,18-EEQ) Analogues as Potential Clinical Antiarrhythmic Agents” (J Med Chem, 2019).
Values after ≈ are worked out from the molar mass of the structure shown.

Columns and labels:
[1] = molecular target: T1, Bifunctional epoxide hydrolase 2 (Homo sapiens) (UniProt P34913); experiment: Inhibition of N-terminal His-tagged recombinant human soluble epoxide hydrolase (2 to 555 residues) expressed in Sf21 insect cells at 10 uM using as 14,15-EET as substrate after 10 mins by reversed-phase HPLC assay relative to control
T1 sequence (whole entry): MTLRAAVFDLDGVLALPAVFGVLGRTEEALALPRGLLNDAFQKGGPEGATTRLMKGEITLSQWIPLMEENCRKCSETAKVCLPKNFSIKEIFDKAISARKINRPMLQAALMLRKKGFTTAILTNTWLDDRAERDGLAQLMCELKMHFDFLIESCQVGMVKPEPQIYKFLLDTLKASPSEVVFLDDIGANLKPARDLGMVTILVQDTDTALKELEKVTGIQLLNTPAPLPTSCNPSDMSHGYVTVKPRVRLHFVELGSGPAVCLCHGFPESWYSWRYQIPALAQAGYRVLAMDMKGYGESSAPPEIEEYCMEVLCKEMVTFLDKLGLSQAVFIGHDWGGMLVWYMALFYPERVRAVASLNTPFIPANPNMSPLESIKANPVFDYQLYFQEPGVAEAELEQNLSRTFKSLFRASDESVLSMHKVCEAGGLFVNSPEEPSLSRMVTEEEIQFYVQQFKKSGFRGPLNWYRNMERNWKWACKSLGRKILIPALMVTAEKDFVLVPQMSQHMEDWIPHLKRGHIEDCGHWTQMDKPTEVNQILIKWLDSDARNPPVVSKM

[2] = Half life in human hepatocytes at 1 uM measured up to 180 mins by LC-ESI-MS/MS analysis; assay type: ADME, cell-based, Hepatocyte
[3] = Tmax in Sprague-Dawley (RjHan:SD) rat at 3 mg/kg, po administered via gavage by LC-MS analysis; assay type: ADME, organism-based; settings: in vivo
Cytochrome P450 2C9 = Cytochrome P450 2C9 (Homo sapiens, UniProt P11712); experiment: Inhibition of human CYP2C9 by fluorescence method; assay type: ADME
Cytochrome P450 2C19 = Cytochrome P450 2C19 (Homo sapiens, UniProt P33261); experiment: Inhibition of human CYP2C19 by fluorescence method; assay type: ADME
[4] = Intrinsic clearance in human hepatocytes assessed per million cells at 1 uM measured up to 180 mins by LC-ESI-MS/MS analysis; assay type: ADME, cell-based, Hepatocyte; settings: read-out: CLH
[5] = n-Octanol-Tris/phosphoric acid buffer buffer distribution coefficient, log D of the compound at pH 7.4 shaken for 30 mins and measured after 24 hrs by UV-HPLC method; assay type: physicochemical
[6] = Stability of compound in HEPES buffer assessed as parent compound remaining at 1 uM after 180 mins by LC-ESI-MS/MS analysis; assay type: physicochemical; settings: read-out: Stability
[7] = Stability in human plasma at 10 uM measured over 240 mins by LC-ESI-MS/MS analysis; assay type: ADME, cell-free; settings: 4 h
[8] = Negative chronotropic activity in Wistar rat neonatal cardiomyocytes assessed as changes to basal beating rate after 7 mins by inverted microscopic method; assay type: functional
[9] = Apparent permeability across apical to basolateral side in human Caco2 cells at 10 uM after 15 to 90 mins by LC-ESI-MS/MS analysis; assay type: ADME, cell-based; settings: Caco-2
Cytochrome P450 3A4 = Cytochrome P450 3A4 (Homo sapiens, UniProt P08684); experiment: Inhibition of recombinant human CYP3A4 expressed in supersomes using 7-benzyloxyquinoline as substrate by fluorescence method; assay type: ADME
[10] = molecular target: T1, Bifunctional epoxide hydrolase 2 (Homo sapiens); settings: Sf21, at 1 µM
Description: Inhibition of N-terminal His-tagged recombinant human soluble epoxide hydrolase (2 to 555 residues) expressed in Sf21 insect cells at 1 uM using as 14,15-EET as substrate after 10 mins by reversed-phase HPLC assay relative to control

Cytochrome P450 2J2 = molecular target: T2, Cytochrome P450 2J2 (Homo sapiens, UniProt P51589); experiment: Inhibition of recombinant human CYP2J2 expressed in baculovirus infected insect cells co-expressing NADPH-CYP reductase and cytochrome b5 assessed as reduction in CYP2J2-mediated EPA epoxidation by measuring sum of EEQ and DiHETEs level at 1 to 50 uM using EPA as substrate preincubated for 5 mins followed by NADPH addition and measured after 15 mins by LCMS/MS analysis; assay type: ADME; settings: recombinant enzyme, 0.25 h
T2 sequence (P51589 whole entry): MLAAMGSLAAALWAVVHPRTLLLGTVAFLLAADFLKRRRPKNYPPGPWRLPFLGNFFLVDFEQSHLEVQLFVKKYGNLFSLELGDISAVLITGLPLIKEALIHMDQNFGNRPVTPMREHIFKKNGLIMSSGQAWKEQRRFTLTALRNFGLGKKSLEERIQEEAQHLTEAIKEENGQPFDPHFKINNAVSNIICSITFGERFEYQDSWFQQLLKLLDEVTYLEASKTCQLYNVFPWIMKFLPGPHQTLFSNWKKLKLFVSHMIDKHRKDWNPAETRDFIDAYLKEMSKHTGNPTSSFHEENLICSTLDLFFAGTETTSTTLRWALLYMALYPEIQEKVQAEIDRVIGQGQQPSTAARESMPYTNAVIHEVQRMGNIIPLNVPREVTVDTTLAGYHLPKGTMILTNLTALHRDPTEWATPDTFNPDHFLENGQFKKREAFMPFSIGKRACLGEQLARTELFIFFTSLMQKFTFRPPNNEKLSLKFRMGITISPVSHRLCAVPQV

[11] = Negative chronotropic activity in Wistar rat neonatal cardiomyocytes assessed as decrease in basal beating rate after 7 mins by inverted microscopic method; assay type: functional, cell-based
[12] = Protein binding in human plasma at 10 uM incubated for 60 mins by LC-ESI-MS/MS analysis; assay type: ADME, cell-free; settings: read-out: PPB (converted)
[13] = Efflux ratio of apparent permeability across basolateral to apical side over apical to basolateral side in human Caco2 cells at 10 uM after 15 to 90 mins by LC-ESI-MS/MS analysis; assay type: ADME, cell-based; settings: Caco-2
Cytochrome P450 = experiment: Drug metabolism in human liver microsomes assessed as CYP450-mediated formation of [+O] metabolites at 1 uM after 60 mins in absence of NADPH by LC-MS analysis; assay type: ADME; settings: 1 h
[14] = Aqueous solubility of the compound in pH 7.4 potassium phosphate buffer at 2 mg after 1 to 24 hrs by RP-HPLC method; assay type: physicochemical; settings: potassium phosphate buffer, read-out: solubility
[15] = Apparent permeability across basolateral to apical side in human Caco2 cells at 10 uM after 15 to 90 mins by LC-ESI-MS/MS analysis; assay type: ADME, cell-based; settings: Caco-2

Cytochrome P450 2C9, sequence (P11712 whole entry): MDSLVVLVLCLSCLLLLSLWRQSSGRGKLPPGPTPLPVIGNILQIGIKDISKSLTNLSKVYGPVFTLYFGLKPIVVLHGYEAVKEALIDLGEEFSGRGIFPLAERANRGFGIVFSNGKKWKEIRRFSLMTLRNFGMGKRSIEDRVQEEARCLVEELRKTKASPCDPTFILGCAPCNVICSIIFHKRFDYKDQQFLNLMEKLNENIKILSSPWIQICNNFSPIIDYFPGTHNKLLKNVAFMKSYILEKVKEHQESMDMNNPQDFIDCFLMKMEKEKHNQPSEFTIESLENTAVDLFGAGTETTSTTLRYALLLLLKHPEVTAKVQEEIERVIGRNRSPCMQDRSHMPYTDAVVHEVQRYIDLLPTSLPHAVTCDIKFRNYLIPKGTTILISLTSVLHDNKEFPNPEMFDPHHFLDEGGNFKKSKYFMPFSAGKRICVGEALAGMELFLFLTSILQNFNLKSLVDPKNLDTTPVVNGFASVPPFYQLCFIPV
Cytochrome P450 2C19, sequence (P33261 whole entry): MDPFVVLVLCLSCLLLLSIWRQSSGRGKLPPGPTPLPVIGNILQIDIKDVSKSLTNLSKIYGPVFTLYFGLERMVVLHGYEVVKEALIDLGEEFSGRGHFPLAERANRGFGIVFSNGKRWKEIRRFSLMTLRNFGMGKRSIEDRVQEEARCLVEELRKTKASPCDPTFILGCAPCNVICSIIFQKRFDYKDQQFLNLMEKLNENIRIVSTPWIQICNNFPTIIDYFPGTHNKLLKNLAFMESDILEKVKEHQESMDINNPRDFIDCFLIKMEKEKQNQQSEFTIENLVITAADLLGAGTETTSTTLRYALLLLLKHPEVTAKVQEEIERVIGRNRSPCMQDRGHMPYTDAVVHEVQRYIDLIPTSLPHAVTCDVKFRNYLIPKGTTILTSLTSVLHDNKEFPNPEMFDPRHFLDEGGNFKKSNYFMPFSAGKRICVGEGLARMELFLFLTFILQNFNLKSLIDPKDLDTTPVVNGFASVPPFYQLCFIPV
Cytochrome P450 3A4, sequence (P08684 whole entry): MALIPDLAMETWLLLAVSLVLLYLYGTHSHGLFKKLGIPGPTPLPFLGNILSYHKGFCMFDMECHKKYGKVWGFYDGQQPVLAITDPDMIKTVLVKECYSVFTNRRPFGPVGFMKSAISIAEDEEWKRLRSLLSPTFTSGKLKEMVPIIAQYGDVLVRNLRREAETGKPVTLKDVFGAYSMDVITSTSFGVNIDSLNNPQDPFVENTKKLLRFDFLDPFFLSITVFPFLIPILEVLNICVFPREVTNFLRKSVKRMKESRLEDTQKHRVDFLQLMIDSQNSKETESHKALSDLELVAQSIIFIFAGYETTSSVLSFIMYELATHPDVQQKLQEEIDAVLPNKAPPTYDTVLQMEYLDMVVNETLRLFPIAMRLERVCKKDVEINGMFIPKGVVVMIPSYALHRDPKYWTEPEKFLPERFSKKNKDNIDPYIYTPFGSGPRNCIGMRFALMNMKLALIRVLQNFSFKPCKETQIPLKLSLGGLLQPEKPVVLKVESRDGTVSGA

Row | Structure (SMILES) | inhibition [1] | half-life at 1 µM [2] | Tmax [3] | IC50 (Cytochrome P450 2C9) | IC50 (Cytochrome P450 2C19) | hepatocyte CLint at 1 µM [4] | logD [5] | remaining at 3 h, 1 µM [6] | Stability [7] | Emax [8] | Papp A→B at 10 µM [9] | IC50 (Cytochrome P450 3A4) | inhibition [10] | inhibition (INH) (Cytochrome P450 2J2) | EC50 [11] | fraction unbound at 1 h, 10 µM [12] | efflux ratio at 10 µM [13] | Drug metabolism (Cytochrome P450) | solubility [14] | Papp B→A at 10 µM [15]
1 | CNC(=O)C(=O)NCCCC/C=C\CCCCCCCOCC(=O)O | 0.8% | 5.83 h | 1.6 h | > 50 µM | 46.2 µM | 2.48 µL/min/1e6 cells | -0.03 | 102% | Stable | 36.7 bpm | 28.2 ×10⁻⁶ cm/s | > 50 µM | 0.8% | Not Active | 0.00141 µM | 0.0063 | 0.6 | Metabolite_Notdetected | 1960 µg/mL (≈ 5500 µM) | 15.8 ×10⁻⁶ cm/s
2 | CNC(=O)C(=O)NCCCC/C=C\CCCCCCCCCC(=O)O | -8.3% | 0.874 h | 1.6 h | > 50 µM | > 50 µM | 16.5 µL/min/1e6 cells | 2.01 | 85.3% | Stable | 38.2 bpm | 5.3 ×10⁻⁶ cm/s | > 50 µM | -4.1% | Not Active | 0.00569 µM | 0.0009 | 0.4 | Metabolite_Notdetected | 80 µg/mL (≈ 226 µM) | 2.3 ×10⁻⁶ cm/s
3 | CNC(=O)C(=O)NCCCC/C=C\CCCCCCCCCc1nnn[nH]1 | 1.9% | 3.02 h | 2 h | 5.4 µM | 0.21 µM | 4.77 µL/min/1e6 cells | 2.35 | 104% | Stable | 37.1 bpm | 10 ×10⁻⁶ cm/s | 4.7 µM | -1.3% | Active | 0.00115 µM | 0.0003 | 0.8 | Metabolite_Notdetected | 40 µg/mL (≈ 106 µM) | 8 ×10⁻⁶ cm/s
